{
  "source": "paper PMC8447191",
  "about": "“Peptide Amphiphilic-Based Supramolecular Structures with Anti-HIV-1 Activity” (Bioconjugate Chemistry, 2021)",
  "key": {"HIV-1BaL": {"test_system": "HIV-1BaL", "format": "cell-based", "details": "HIV-1BaL, TZM-bl cells; peptide 10-0.00061 μM for 1 h at 37 °C before virus; luciferase after 48 h; sigmoid fit; mean of triplicates", "protocol": "HIV-1BaL[52] was provided by the NIH AIDS Research & Reference Reagent Program (http://www.aidsreagent.org/). Viral stock was prepared by passage through activated PBMCs[53] for 11 days.\nLuciferase-reporter HeLa cells stably transfected to express CD4 and CCR5; TZM-bl cells[54]−[56] were grown in Dulbecco’s Minimal Essential Medium (DMEM) (Sigma-Aldrich, Inc., St. Louis, MO) containing 10% fetal calf serum (FCS), 2 mM L-glutamine, and antibiotics (100 U of penicillin/mL, 100 μg of streptomycin/mL) at 37 °C in an atmosphere containing 5% CO2.\nAll inhibition assays in cellular and tissue explants models were performed using a standardized amount of virus culture supernatant normalized for infectivity. TZM-bl cells were incubated with serial dilutions of peptides (from 10 μM to 0.00061 μM) for 1 h at 37 °C, prior to challenge with HIV-1BaL. Luciferase expression (r.l.u. values) was determined after 48 h. Alternatively, tissue explants were incubated with serial dilutions of peptide (from 100 μM to 0.1 μM) for 1 h before virus (10^4 TCID50/mL) was added for 2 h. Explants were then washed four times with PBS to remove unbound virus and drug. Colorectal explants were then transferred onto gelfoam rafts (Welbeck Pharmaceuticals, UK) and cultured for 15 days as described previously[57] […]. Explants were cultured for up to 15 days in the absence of peptide. Approximately 50% of the supernatants were harvested every 2–3 days and explants were re-fed with fresh media. The extent of viral replication in tissue explants was determined by measuring the p24 antigen concentration in supernatants (INNOTEST HIV antigen mAb; Fujirebio Europe, Belgium). The extent of inhibition by each peptide was calculated. The percentage of inhibition was normalized relative to the r.l.u, for TZM-bl cells, or p24, for tissue explants, values obtained for cells or explants cultured in the absence of virus (100% inhibition) and for cells or explants infected with virus in the absence of peptide (0% inhibition). Data are the mean (±SEM) of triplicates. When a dose–response curve was obtained, IC50 and, if possible, IC95 values were calculated from sigmoid curve fits (GraphPad Prism). For all curves, R^2 is >0.7."}, "MTT cytotoxicity assay": {"assay": "MTT cytotoxicity assay", "format": "cell-based", "details": "human, HeLa-env cells, PAs coassembled with 5% FAM, 40-2.3 μM, absorbance 560 nm", "protocol": "The metabolic activity of the cell line, related to the cytotoxic effect of the compounds to be tested, is measured after 24 h using the MTT assay. This assay is based on the metabolic reduction of 3-(4,5-dimethylthiazol-2-yl)-2,5-diphenyl-2H-tetrazolium bromide (MTT), carried out by the mitochondrial enzyme succinate dehydrogenase, in a colored compound of blue color (formazan) that can be monitored by absorbance spectroscopy at 560 nm, allowing determination of the mitochondrial functionality of the treated cells.\nThe HeLa-env cell line is seeded in 96-well plates with an initial density of 15,000 cells per well in 100 μL of culture medium (Dulbecco’s modified Eagle’s medium, DMEM, with 10% FBS added) and incubated for 24 h at 37 °C and 5% CO2 to allow their adhesion. The cell monolayers are washed with PBS, and then 100 μL of PAs formulations (peptide amphiphiles coassembled with 5% FAM) are added in a concentration range from 40 μM to 2.3 μM. The plates are kept in incubation for further 24 h.\nAt the end of the incubation time, the cells are incubated for 3 h with 1 mg/mL of MTT, dissolved in culture medium without FBS, to allow the formation of formazan crystals. Subsequently, 100 μL of DMSO are added to wells, stirring the plates for 30 min at room temperature to facilitate the complete dissolution of the crystals. Finally, the absorbance at 560 nm is measured in a microplate reader.\nThe results are expressed as relative percentage between absorbance of PA formulations against absorbance of its DMSO controls and CC50 and CC25 values are taken from dose–response curves."}, "[1]": {"assay": "Visual stability and aspect of POPC vesicles mixed with PAs (SAXS samples)", "format": "physicochemical", "details": "POPC 20 mM + 2 mM PA, 0.5% DMSO", "protocol": "In Figure 5A,B, we show the spectra corresponding to POPC 20 mM and POPC 20 mM + 2 mM PAs (all of them in the presence of 0.5% DMSO). The band centered at 1.2 nm^–1 and the secondary band at 3.2 nm^–1 were typical of unilamellar vesicles.[35]\nThe incorporation of PAs had some distinct consequences. The first and more obvious one is the distinction between stable and unstable systems."}},
  "note": "*1 amine or outer side, *2 acyl side, *3 side chain or, on linkers, in order; H or OH if unused. Where a SMILES comes first, the peptide text is derived from it. Side-chain parts run from the residue outwards. The star is where a group is joined. PEG28 = NCCOCCOCCOCCOCCOCCOCCOCCOCCOCCOCCOCCOCCOCCOCCOCCOCCOCCOCCOCCOCCOCCOCCOCCOCCOCCOCCOCCOCCC(=O)O; N(octadecyl)2 = CCCCCCCCCCCCCCCCCCN(CCCCCCCCCCCCCCCCCC)*; Suc = O=C(CCC(=O)[*:2])[*:1]",
  "data": [
    {"smiles": "CCCCCCCCCCCCCCCCCCN(CCCCCCCCCCCCCCCCCC)C(=O)CCC(=O)NCCOCCOCCOCCOCCOCCOCCOCCOCCOCCOCCOCCOCCOCCOCCOCCOCCOCCOCCOCCOCCOCCOCCOCCOCCOCCOCCOCCOCCC(=O)NCCCC[C@H](NC(=O)[C@H](Cc1c[nH]c2ccccc12)NC(=O)[C@H](CC(C)C)NC(=O)[C@H](Cc1ccc(O)cc1)NC(=O)[C@H](CCC(=O)O)NC(=O)[C@H](CC(C)C)NC(=O)[C@@H](NC(=O)[C@@H](N)Cc1c[nH]c2ccccc12)[C@@H](C)CC)C(=O)N[C@H](C(=O)N1CCC[C@H]1C(=O)N[C@@H](Cc1ccccc1)C(=O)N[C@@H](CC(=O)O)C(=O)N[C@@H](Cc1ccccc1)C(=O)N[C@@H](Cc1c[nH]c2ccccc12)C(=O)N[C@@H](CCCNC(=N)N)C(=O)NCC(=O)N[C@H](C(=O)N[C@H](C(N)=O)[C@@H](C)CC)C(C)C)C(C)C", "note": "[K-PAdialkyl] (H-WILEYLWK([PEG28-Suc-N(octadecyl)2])VPFDFWRGVI-NH2)", "values": [
      {"measurement": "IC50", "setting": "HIV-1BaL", "result": 50, "unit": "nM"},
      {"measurement": "CC50 at 24 h", "setting": "MTT cytotoxicity assay", "result": "> 40000", "unit": "nM"},
      {"measurement": "stability / aspect of the sample", "setting": "[1]", "result": "milky"},
      {"measurement": "vesicular bilayer thickness", "result": 9, "unit": "nm"}
    ]}
  ]
}
